# Article PMC10779222, “Copper(II) Complexes with 1-(Isoquinolin-3-yl)heteroalkyl-2-ones: Synthesis, Structure and Evaluation of Anticancer, Antimicrobial and Antioxidant Potential” (International Journal of Molecular Sciences, 2023)
# Legend:
# T98G cells = details: C2 at 0.25 µg/mL (non-cytotoxic), drugs at IC50 or 100 µg/mL, 24 h, MTT
# Description: Next, T98G or HepG2 cells were incubated for 24 h with medium containing a mixture of the respective drugs mixed with the highest non-toxic concentration of C2 (CX). The viability of cells was evaluated using MTT assay, as described above. ANOVA analysis (with Tukey’s post hoc test) was performed in order to examine the possible interactions between compound C2 (CX) and ETO, CIS, 5-FU and TMZ.
# [1] = system: Candida glabrata ATCC 90030; test: Two-fold microdilution broth method, MIC; assay type: cell-based; details: 35 °C, 24 h
# Text: (§1) Antibacterial and antifungal activities of the free ligands L2, L3 and L4 and the corresponding copper(II) complexes C2, C3 and C4 were screened using the two-fold microdilution broth method. Minimal inhibitory concentrations (MICs) of tested compounds for the panel of reference Gram-positive bacteria, including Staphylococcus aureus ATCC 25923, Staphylococcus aureus ATCC BAA-1707, Staphylococcus epidermidis ATCC 12228, Micrococcus luteus ATCC 10240 and Bacillus cereus ATCC 10876; Gram-negative bacteria, including Salmonella Typhimurium ATCC 14028, Escherichia coli ATCC 25922, Proteus mirabilis ATCC 12453, Klebsiella pneumoniae ATCC 13883 and Pseudomonas aeruginosa ATCC 9027; and yeasts, including Candida albicans ATCC 102231, Candida parapsilosis ATCC 22019 and Candida glabrata ATCC 90030 were determined. The procedure has been described in detail before. Briefly, the solutions of tested compounds dissolved in dimethylosulfoxide (DMSO) were suspended in Mueller–Hinton broth for bacteria or Mueller–Hinton broth with 2% glucose for fungi. Then, the series of two-fold dilutions were carried out in the sterile Nunc™ MicroWell™ 96-Well Microplates (ThermoFisher Scientific Inc.), obtaining concentrations from 1000 to 7.8 mg/L in the appropriate medium. Simultaneously, the inocula of 24 h cultures of microorganisms in sterile physiological saline (0.5 McFarland standard density) were prepared and added to each well, obtaining final density of 5 × 10^5 CFU/mL for bacteria and 5 × 10^4 CFU/mL for yeasts. Proper positive (inoculum without tested compound) and negative (compound without inoculum) controls were added in each microplate. After incubation (35 °C, 24 h), the growth of microorganisms was measured spectrophotometrically at 600 nm (BioTEK ELx808, Bio-Tek Instruments, Inc., Winooski, VT, USA). MICs were marked at the lowest concentration of the compound without the growth of bacteria or fungi.
# [2] = system: Candida albicans ATCC 102231; test: Two-fold microdilution broth method, MIC; assay type: cell-based; details: 35 °C, 24 h
# Text: as §1
# [3] = system: Candida parapsilosis ATCC 22019; test: Two-fold microdilution broth method, MIC; assay type: cell-based; details: 35 °C, 24 h
# Text: as §1
# HepG2 (hepatoma) = test: MTT cytotoxicity assay on HepG2 cells; assay type: cell-based, human
# Description: (§2) Cytotoxic activity of the investigated compounds was evaluated against T98G (glioblastoma), HepG2 (hepatoma), LS-180 (colon cancer) and A375 (melanoma) cell lines. Human normal skin fibroblasts, CCD-1059Sk (CRL-2072), were used as reference (non-cancerous) cells. All of the cell lines were obtained from American Type Culture Collection (ATCC; Manassas, VA, USA). A375, T98G and CCD-1059Sk cells were cultured in Dulbecco’s Modified Eagle’s Medium (DMEM) (Sigma Aldrich, St. Louis, MO, USA) supplemented with 10% FBS, penicillin (100 U/mL) and streptomycin (100 μg/mL). LS-180 and HepG2 cells were cultured in Eagle’s Minimum Essential Medium supplemented with 10% FBS, penicillin (100 U/mL) and streptomycin (100 μg/mL). All of the cells were maintained at 37 °C in a humidified atmosphere of 5% CO2. The compounds were dissolved in DMSO in order to obtain stock solutions. At the day of the experiment, the suspension of cells (1 × 10^5 cells/mL) was distributed onto 96-well plates at a volume of 100 μL/well. After attachment, the cells were treated with the increased concentrations of the tested compounds in medium containing 2% FBS and incubated for 24 h. Then, the medium was removed from wells, and cells were rinsed with PBS. Afterwards, 15 μL of MTT working solution (5 mg/mL in PBS) was added to each well, and the plates were incubated for 3 h. Subsequently, 100 μL of 10% SDS solution was added to each well in order to dissolve the precipitated formazan crystals. After overnight incubation at 37 °C, the absorbance of the obtained solution was measured at λ = 570 nm using a microplate reader (Epoch, BioTek Instruments, Inc., Winooski, VT, USA). At least two independent experiments were performed in triplicate. […] IC50 values of the investigated derivatives and positive control (etoposide) were calculated using the IC50 online calculator [101].
# T98G (glioblastoma) = test: MTT cytotoxicity assay on T98G cells; assay type: cell-based
# Description: as §2
smiles,measurement,setting,value
"O=C1NCCN1c1cc2ccccc2cn1.O=C1NCCN1c1cc2ccccc2cn1.[Cl][Cu][Cl] [C2, Dichloro{bis[1-(Isoquinolin-3-yl)imidazolidin-2-one]}copper(II)]","effect on cytotoxicity of anticancer drugs, T98G",T98G cells,"statistically significantly improved the cytotoxic effects of ETO, 5-FU and TMZ"
same,"MIC, C. glabrata ATCC 90030",[1],>1000 µg/mL
same,"MIC, C. albicans ATCC 102231",[2],1000 µg/mL
same,"MIC, C. parapsilosis ATCC 22019",[3],1000 µg/mL
same,"selectivity index (SI), HepG2",HepG2 (hepatoma); HepG2 compared with CCD-1059-Sk,4.33
same,highest concentration that did not affect the viability of HepG2 cells,HepG2 (hepatoma); MTT assay,0.25 µg/mL
same,"IC50 ± SD, HepG2","HepG2 (hepatoma); MTT, 24 h incubation",5.04 ± 0.42 µg/mL
same,highest concentration that did not affect the viability of T98G cells,T98G (glioblastoma); MTT assay,0.25 µg/mL
same,"IC50 ± SD, T98G","T98G (glioblastoma); MTT, 24 h incubation",6.97 ± 0.52 µg/mL
same,"selectivity index (SI), T98G",T98G (glioblastoma); T98G compared with CCD-1059-Sk,3.14
